Source: PubChem BioAssay (NCI)
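Cultured in 96-well plates, cells were exposed to test compound for 48 hours across five concentrations. Abbreviation: GI50, concentration required for 50% inhibition of growth. TGI denotes the concentration required for complete inhibition of growth.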

Key:
Experiment in all cases: NCI anticancer screen, dose series, 48 h
HCT-116 colon = tested on: HCT-116 colon
PC-3 prostate = tested on: PC-3 prostate
RXF 393 renal = tested on: RXF 393 renal
K-562 leukemia = tested on: K-562 leukemia
A549 NSCLC = tested on: A549 NSCLC
UACC-257 melanoma = tested on: UACC-257 melanoma
NCI-H460 lung = tested on: NCI-H460 lung
SF-295 CNS = tested on: SF-295 CNS
NCI-H226 lung = tested on: NCI-H226 lung
NCI/ADR-RES ovarian = tested on: NCI/ADR-RES ovarian
HS 578T breast = tested on: HS 578T breast
MCF7 breast = tested on: MCF7 breast
BT-549 breast = tested on: BT-549 breast
HL-60(TB) leukemia = tested on: HL-60(TB) leukemia
HT29 colon = tested on: HT29 colon
SK-OV-3 ovarian = tested on: SK-OV-3 ovarian
MDA-MB-231 breast = tested on: MDA-MB-231 breast
CAKI-1 renal = tested on: CAKI-1 renal
MALME-3M melanoma = tested on: MALME-3M melanoma
SK-MEL-2 melanoma = tested on: SK-MEL-2 melanoma
OVCAR-5 ovarian = tested on: OVCAR-5 ovarian
IGROV1 ovarian = tested on: IGROV1 ovarian
OVCAR-3 ovarian = tested on: OVCAR-3 ovarian
OVCAR-4 ovarian = tested on: OVCAR-4 ovarian
EKVX NSCLC = tested on: EKVX NSCLC
UACC-62 melanoma = tested on: UACC-62 melanoma
SK-MEL-5 melanoma = tested on: SK-MEL-5 melanoma
NCI-H23 lung = tested on: NCI-H23 lung
786-0 renal = tested on: 786-0 renal
HCT-15 colon = tested on: HCT-15 colon
NCI-H522 lung = tested on: NCI-H522 lung
SR leukemia = tested on: SR leukemia
LOX IMVI melanoma = tested on: LOX IMVI melanoma
M14 melanoma = tested on: M14 melanoma
A498 renal = tested on: A498 renal
SNB-75 CNS = tested on: SNB-75 CNS
SF-268 CNS = tested on: SF-268 CNS
SK-MEL-28 melanoma = tested on: SK-MEL-28 melanoma
CCRF-CEM leukemia = tested on: CCRF-CEM leukemia
SF-539 CNS = tested on: SF-539 CNS
ACHN renal = tested on: ACHN renal
COLO 205 colon = tested on: COLO 205 colon
SN12C renal = tested on: SN12C renal
U251 CNS = tested on: U251 CNS
DU-145 prostate = tested on: DU-145 prostate
SW-620 colon = tested on: SW-620 colon
KM12 colon = tested on: KM12 colon
MDA-MB-435 = tested on: MDA-MB-435
UO-31 renal = tested on: UO-31 renal
OVCAR-8 ovarian = tested on: OVCAR-8 ovarian
MDA-MB-468 breast = tested on: MDA-MB-468 breast
RPMI-8226 leukemia = tested on: RPMI-8226 leukemia
HOP-92 NSCLC = tested on: HOP-92 NSCLC
T-47D breast = tested on: T-47D breast
HOP-62 NSCLC = tested on: HOP-62 NSCLC
SNB-19 CNS = tested on: SNB-19 CNS
MOLT-4 leukemia = tested on: MOLT-4 leukemia
TK-10 renal = tested on: TK-10 renal
HCC-2998 colon = tested on: HCC-2998 colon

Q: With `CCOC(=O)c1ccc(NC(=S)NC(=O)c2ccc(NC(=O)C(C)C)cc2OC)cc1` as the compound, how does the GI50 (HCT-116 colon) read?
A: 3.99 µM

Q: And the TGI (HCT-116 colon)?
A: 51.5 µM

Q: What about the GI50 (PC-3 prostate) of the same compound?
A: 6.41 µM

Q: And the TGI (PC-3 prostate)?
A: 69.9 µM

Q: And the GI50 (RXF 393 renal)?
A: 15.7 µM

Q: What about the TGI (RXF 393 renal) of the same compound?
A: 82.5 µM

Q: What about the GI50 (K-562 leukemia) of the same compound?
A: 3.28 µM

Q: What about the TGI (K-562 leukemia) of the same compound?
A: > 100 µM

Q: What about the GI50 (A549 NSCLC) of the same compound?
A: 33.4 µM

Q: What about the TGI (A549 NSCLC) of the same compound?
A: > 100 µM

Q: What about the GI50 (UACC-257 melanoma) of the same compound?
A: 12.5 µM

Q: And the TGI (UACC-257 melanoma)?
A: > 100 µM

Q: And the GI50 (NCI-H460 lung)?
A: 7.17 µM

Q: What about the TGI (NCI-H460 lung) of the same compound?
A: > 100 µM

Q: What about the GI50 (SF-295 CNS) of the same compound?
A: 8.33 µM

Q: And the TGI (SF-295 CNS)?
A: 45.4 µM

Q: And the GI50 (NCI-H226 lung)?
A: 4.46 µM

Q: And the TGI (NCI-H226 lung)?
A: 36.8 µM

Q: What about the GI50 (NCI/ADR-RES ovarian) of the same compound?
A: 12.6 µM

Q: What about the TGI (NCI/ADR-RES ovarian) of the same compound?
A: 48.3 µM

Q: And the GI50 (HS 578T breast)?
A: 31.7 µM

Q: And the TGI (HS 578T breast)?
A: > 100 µM

Q: What about the GI50 (MCF7 breast) of the same compound?
A: 3.26 µM

Q: And the TGI (MCF7 breast)?
A: 37.2 µM

Q: And the GI50 (BT-549 breast)?
A: 1.97 µM

Q: And the TGI (BT-549 breast)?
A: 6.52 µM

Q: And the GI50 (HL-60(TB) leukemia)?
A: 2.45 µM

Q: And the TGI (HL-60(TB) leukemia)?
A: 25.2 µM

Q: And the GI50 (HT29 colon)?
A: 39.3 µM

Q: What about the TGI (HT29 colon) of the same compound?
A: > 100 µM

Q: And the GI50 (SK-OV-3 ovarian)?
A: 35.6 µM

Q: And the TGI (SK-OV-3 ovarian)?
A: > 100 µM

Q: What about the GI50 (MDA-MB-231 breast) of the same compound?
A: 16.2 µM

Q: And the TGI (MDA-MB-231 breast)?
A: 53.2 µM

Q: What about the GI50 (CAKI-1 renal) of the same compound?
A: 17.8 µM

Q: What about the TGI (CAKI-1 renal) of the same compound?
A: 80.8 µM

Q: What about the GI50 (MALME-3M melanoma) of the same compound?
A: 4.28 µM

Q: What about the TGI (MALME-3M melanoma) of the same compound?
A: 32.6 µM

Q: What about the GI50 (SK-MEL-2 melanoma) of the same compound?
A: 14.9 µM

Q: What about the TGI (SK-MEL-2 melanoma) of the same compound?
A: 62.9 µM

Q: And the GI50 (OVCAR-5 ovarian)?
A: 29.7 µM

Q: What about the TGI (OVCAR-5 ovarian) of the same compound?
A: > 100 µM

Q: What about the GI50 (IGROV1 ovarian) of the same compound?
A: 19.3 µM

Q: And the TGI (IGROV1 ovarian)?
A: > 100 µM

Q: And the GI50 (OVCAR-3 ovarian)?
A: 15.3 µM

Q: What about the TGI (OVCAR-3 ovarian) of the same compound?
A: > 100 µM

Q: And the GI50 (OVCAR-4 ovarian)?
A: 9.21 µM

Q: And the TGI (OVCAR-4 ovarian)?
A: 71.6 µM

Q: And the GI50 (EKVX NSCLC)?
A: 15.7 µM

Q: What about the TGI (EKVX NSCLC) of the same compound?
A: 99.8 µM

Q: What about the GI50 (UACC-62 melanoma) of the same compound?
A: 11.7 µM

Q: And the TGI (UACC-62 melanoma)?
A: 53.7 µM

Q: What about the GI50 (SK-MEL-5 melanoma) of the same compound?
A: 2.14 µM

Q: What about the TGI (SK-MEL-5 melanoma) of the same compound?
A: 5.79 µM

Q: And the GI50 (NCI-H23 lung)?
A: 3.71 µM

Q: And the TGI (NCI-H23 lung)?
A: 29.7 µM

Q: What about the GI50 (786-0 renal) of the same compound?
A: 21.9 µM

Q: And the TGI (786-0 renal)?
A: 60.4 µM

Q: And the GI50 (HCT-15 colon)?
A: 4.24 µM

Q: And the TGI (HCT-15 colon)?
A: > 100 µM

Q: And the GI50 (NCI-H522 lung)?
A: 3.79 µM

Q: And the TGI (NCI-H522 lung)?
A: > 100 µM

Q: What about the GI50 (SR leukemia) of the same compound?
A: 6.04 µM

Q: What about the TGI (SR leukemia) of the same compound?
A: > 100 µM

Q: What about the GI50 (LOX IMVI melanoma) of the same compound?
A: 11.6 µM

Q: And the TGI (LOX IMVI melanoma)?
A: > 100 µM

Q: And the GI50 (M14 melanoma)?
A: 5.83 µM

Q: And the TGI (M14 melanoma)?
A: 63.1 µM

Q: And the GI50 (A498 renal)?
A: 28.1 µM

Q: And the TGI (A498 renal)?
A: > 100 µM

Q: And the GI50 (SNB-75 CNS)?
A: 3.54 µM

Q: And the TGI (SNB-75 CNS)?
A: 62.7 µM

Q: What about the GI50 (SF-268 CNS) of the same compound?
A: 20.7 µM

Q: And the TGI (SF-268 CNS)?
A: > 100 µM

Q: And the GI50 (SK-MEL-28 melanoma)?
A: 14 µM

Q: And the TGI (SK-MEL-28 melanoma)?
A: > 100 µM

Q: And the GI50 (CCRF-CEM leukemia)?
A: 2.93 µM

Q: And the TGI (CCRF-CEM leukemia)?
A: 50 µM

Q: And the GI50 (SF-539 CNS)?
A: 27.7 µM

Q: And the TGI (SF-539 CNS)?
A: > 100 µM

Q: And the GI50 (ACHN renal)?
A: 26 µM

Q: And the TGI (ACHN renal)?
A: > 100 µM

Q: And the GI50 (COLO 205 colon)?
A: 15.5 µM

Q: What about the TGI (COLO 205 colon) of the same compound?
A: 42.3 µM

Q: And the GI50 (SN12C renal)?
A: 28.5 µM

Q: And the TGI (SN12C renal)?
A: > 100 µM

Q: What about the GI50 (U251 CNS) of the same compound?
A: 12.3 µM

Q: And the TGI (U251 CNS)?
A: 46 µM

Q: And the GI50 (DU-145 prostate)?
A: 34.7 µM

Q: And the TGI (DU-145 prostate)?
A: > 100 µM

Q: What about the GI50 (SW-620 colon) of the same compound?
A: 8.22 µM

Q: What about the TGI (SW-620 colon) of the same compound?
A: > 100 µM

Q: What about the GI50 (KM12 colon) of the same compound?
A: 6.37 µM

Q: What about the TGI (KM12 colon) of the same compound?
A: > 100 µM

Q: And the GI50 (MDA-MB-435)?
A: 15.2 µM

Q: And the TGI (MDA-MB-435)?
A: > 100 µM

Q: And the GI50 (UO-31 renal)?
A: 11.3 µM

Q: And the TGI (UO-31 renal)?
A: 79.3 µM

Q: What about the GI50 (OVCAR-8 ovarian) of the same compound?
A: 16.4 µM

Q: What about the TGI (OVCAR-8 ovarian) of the same compound?
A: > 100 µM

Q: What about the GI50 (MDA-MB-468 breast) of the same compound?
A: 2.04 µM

Q: And the TGI (MDA-MB-468 breast)?
A: 8.09 µM

Q: What about the GI50 (RPMI-8226 leukemia) of the same compound?
A: 2.66 µM

Q: And the TGI (RPMI-8226 leukemia)?
A: 17.5 µM

Q: What about the GI50 (HOP-92 NSCLC) of the same compound?
A: 13.8 µM

Q: What about the TGI (HOP-92 NSCLC) of the same compound?
A: 44.8 µM

Q: And the GI50 (T-47D breast)?
A: 2.35 µM

Q: And the TGI (T-47D breast)?
A: 11.2 µM

Q: What about the GI50 (HOP-62 NSCLC) of the same compound?
A: 22.1 µM

Q: And the TGI (HOP-62 NSCLC)?
A: 72.3 µM

Q: And the GI50 (SNB-19 CNS)?
A: 14.8 µM

Q: And the TGI (SNB-19 CNS)?
A: 66.9 µM

Q: What about the GI50 (MOLT-4 leukemia) of the same compound?
A: 2.22 µM

Q: What about the TGI (MOLT-4 leukemia) of the same compound?
A: 5.97 µM

Q: What about the GI50 (TK-10 renal) of the same compound?
A: 22.3 µM

Q: What about the TGI (TK-10 renal) of the same compound?
A: 76.6 µM

Q: What about the GI50 (HCC-2998 colon) of the same compound?
A: 20.3 µM

Q: And the TGI (HCC-2998 colon)?
A: > 100 µM
